Laboratory results taken from US12643882B2, “Inhibitors of human respiratory syncytial virus and metapneumovirus” (priority 2022, dated 2026).
Read-outs that look alike come from different tables or passages of the source.

Legend:
RSV-A2-GFP virus = assay: microbe, parasite or virus in culture; format: cell-based, Human Respiratory Syncytial Virus
Description: To set up the assay, ARF vials were thawed in a 37° C. water bath and a control compound was resuspended in assay media DMEM (Dulbecco's Modified Eagle Medium) containing 2% FBS, 100 U/ml Penicillin-Streptomycin.
GFP sequence was derived from pJTI™ R4 Dest CMV N-EmGFP pA Vector (Invitrogen) and was cloned into the intergenic sequence between wild-type RSV-A2 P and M genes using standard recombineering techniques. Recombinant RSV-A2-GFP was propagated in Hep2 cells (human cells contain HeLa marker chromosomes and were derived via HeLa contamination, ATCC CCL-23) with a Multiplicity of Infection (MOI) of 0.1. Virus was harvested 3 days after infection by collecting all culture material and then freeze-thawing the mixture for 5 min. Working virus stocks were generated by thawing frozen viral cultures in 37° C. water bath, which were centrifuged at 218 g for 15 min at 4° C. 1/10 of 10×SPG (Biological Industries 06-3061-01-5A) were added and then mixed. The supernatant was aliquoted, frozen in liquid nitrogen, and then transferred to a −80° C. freezer for storage. Virus titer was determined by automated plaque assay in HEp-2 cells following methods described previously (Wen Z. et al.; 2019).
Calu-1 cells were purchased from ATCC (Cat #HTB-54) and were expanded in growth media (DMEM containing 10% FBS, 100 U/ml Penicillin-Streptomycin). To make ARF, cell culture media was removed and discarded and the cell layer was briefly rinsed with PBS to remove serum. 2.5 mL of TrypLE Express solution were added and cells incubated until dislodged, to which growth media was added and the cells were resuspended by gentle pipetting. Cells were counted for concentration and viability as determined by ViCell. Cells were centrifuged at RT, 300 g for 5 minutes to pellet cells. The supernatant was gently aspirated and the pellet was flicked to loosen cells. Cells were resuspended in an appropriate volume of freezing medium (DMEM containing 10% DMSO, 10% FBS, 100 U/ml Penicillin-Streptomycin) to achieve a concentration of 5×10^6 cells/mL. 1 mL aliquots of the cell suspension were transferred to freezing vials. The vials were put into an upright container in a −80° C. freezer overnight before transferring vials to liquid nitrogen for storage.
Assay ready freezedown (ARF, generation described separately) Calu-1 cells (ATCC HTB-54) were used. Compound plates were prepared by dispensing compounds dissolved in DMSO into the wells of a 384 well Corning® 3985 plate with an ECHO acoustic dispenser and compounds were tested in 10-point serial 3-fold dilution. […] To set up the assay, ARF vial(s) were thawed in a 37° C. water bath and were then resuspended into assay media (DMEM containing 2% FBS, 100 U/ml Penicillin-Streptomycin). Cells were counted using default parameters on ViCell and diluted to 20,000 cells/mL in assay media. RSV-A2-GFP virus was added to cells at 24,000 pfu/ml (MOI=1.2) and mixed by gentle inversion. 10 μL/well of 100% DMSO was dispensed as CellTiter-Glo (CTG) assay Max_E controls wells. The cells were dispensed at 50 μL/well using Bravo with 50 μL filtered tips into compound plates. Plates were covered with MicroClime lids, loaded with 7.5 mL of assay media to minimize evaporation, and were incubated at 37° C. and 5% CO2 for 96 hrs. Following incubation, distinct, GFP-expressing cells were counted using an Acumen imaging system with appropriate settings. A same-well CTG assay was performed by adding 10 μL/well reconstituted CellTiter-Glo reagent (Promega G7573) and plates were read on PerkinElmer Envision according to manufacturer's instructions. Raw data were loaded and analyzed in ActivityBase. Antiviral IC50 and cytotoxicity CC50 values were determined using a 4 parameter logistic fit based on the Levenberg-Marquardt algorithm. Model: 205-4 Parameter Logistic.

hMPV-GFP virus = assay: microbe, parasite or virus in culture; format: cell-based, human metapneumovirus
Description: GFP expressing rgHMPV #3 p3 was generated in Dr. Buchholz's lab (Biacchesi S. et al., J Virol. 2007 June; 81(11): 6057-6067) and propagated in VERO cells (ATCC Cat #CCL-81) with a Multiplicity of Infection (MOI) of 0.1. Virus was harvested 4 days after infection by collecting cultured material and was freeze-thaw cycled in liquid nitrogen twice. Working virus stocks were generated from thawing frozen samples in 37° C. water bath, which were centrifuged at 218 g for 15 min at 4° C. 1/10 of 10×SPG (Biological Industries 06-3061-01-5A) were added and then mixed. The supernatant was aliquoted, frozen in liquid nitrogen, and then transferred to a −80° C. freezer for storage. Virus titer was determined by performing titration test in 96-well plates and calculate approximate virus titer using GFP event/well data.
Compound plates were prepared by dispensing compounds dissolved in DMSO into wells of a 384 well Corning 3985 polystyrene flat clear bottom optical imaging microplate (202.5 nL/well) using an ECHO acoustic dispenser. Each compound was tested in 10-point serial 3-fold dilution (typical final concentrations: 40,300 nM-2 nM). […] Continuous culture of VERO cells was maintained in complete culture media (OptiMEM supplemented with 2 mM GlutaMAX™ and 100 U/ml Penicillin-Streptomycin). To set up the assay, VERO cells were trypsinized with 0.25% Trypsin-EDTA until cells were dislodged, then cells were re-suspended with 1 mL FBS. Cells were spun down at 300 g for 5 minutes and cells were washed twice with culture media and counted using default parameters on ViCell. Cells were then diluted to 100,000 cells/mL (5,000 cells/50 μL) in complete culture media+TrypLE Select (80 μL/mL). hMPV-GFP virus was added to cells at 125,000 pfu/mL (MOI=1.25) and were mixed by gentle inversion. 10 μL/well of 100% DMSO was dispensed to CellTiter-Glo (CTG) assay Max_E controls wells. Cells were dispensed at 50 μL/well using Bravo and 50 μL filtered tips into compound plates. Plates were covered with MicroClime lids and loaded with 7.5 mL of assay media to minimize evaporation. Plates were lightly shaken for 10 minutes at room temperature and then incubated at 37° C. and 5% CO2 for 48 hrs. Following incubation, distinct GFP-expressing cells were counted using an Acumen imaging system with appropriate settings. A same-well CTG assay was performed by adding 10 μL/well reconstituted CellTiter-Glo reagent (Promega G7573) and plates were read on PerkinElmer Envision according to manufacturer's instructions. Raw data were loaded and analyzed in ActivityBase. Antiviral IC50 and cytotoxicity CC50 values were determined using a 4 parameter logistic fit based on the Levenberg-Marquardt algorithm. Model: 205-4 Parameter Logistic. • References: Wen Z, Citron M, Bett A J, Espeseth A S, Vora K A, Zhang L, DiStefano D J. Development and application of a higher throughput RSV plaque assay by immunofluorescent imaging. J Virol Methods. 2019 January; 263:88-95. doi: 10.1016/j.jviromet.2018.10.022. Epub 2018 Oct. 28. PMD: 30381239. • Biacchesi S, Murphy B R, Collins P L, Buchholz U J. Frequent frameshift and point mutations in the SH gene of human metapneumovirus passaged in vitro. J Virol. 2007 June; 81(11):6057-67. doi: 10.1128/JVL.00128-07. Epub 2007 Mar. 21. PMID: 17376897; PMCID: MC 1900297. Assay Data

[1] = read-out: RSV EC50, Calu-1 cells infected with RSV-A2-GFP, 96 hrs, GFP-expressing cells counted
[2] = read-out: hMPV EC50, VERO cells infected with hMPV-GFP, 48 hrs, GFP-expressing cells counted
[3] = Calu-1 cells infected with RSV-A2-GFP, 96 hrs, GFP-expressing cells counted, read-out: RSV EC50
[4] = VERO cells infected with hMPV-GFP, 48 hrs, GFP-expressing cells counted, read-out: hMPV EC50
[5] = human respiratory syncytial virus, Calu-1, 96 h, read-out: RSV EC50, Calu-1 cells infected with RSV-A2-GFP, 96 hrs, GFP-expressing cells counted
[6] = human metapneumovirus, Vero, 48 h, read-out: hMPV EC50, VERO cells infected with hMPV-GFP, 48 hrs, GFP-expressing cells counted

SMILES | EC50 (RSV-A2-GFP virus; [3]) [nM] | EC50 (hMPV-GFP virus; [4]) [nM] | EC50 (RSV-A2-GFP virus; [5]) [nM] | EC50 (hMPV-GFP virus; [6]) [nM] | further results
Cn1nc(-c2ncccn2)cc1C(=O)N1C[C@H]2[C@H](Oc3cc(C(C)(C)N)cc(-c4ccc(C(F)(F)F)cc4)n3)[C@@]2(C)C1 (single isomer, unassigned; enantiomer 2) [Example 110B] | – | – | – | – | EC50 (RSV-A2-GFP virus; [1]): < 10 nM; EC50 (hMPV-GFP virus; [2]): > 100 nM
Cc1nn(-c2ncccn2)cc1C(=O)N1C[C@H]2[C@H](Oc3cc(C(C)(C)N)cc(-c4ccc(C(F)(F)F)cc4)n3)[C@@]2(C)C1 (single isomer, unassigned; enantiomer 2) [Example 111B] | – | – | – | – | EC50 (RSV-A2-GFP virus; [1]): < 10 nM; EC50 (hMPV-GFP virus; [2]): 10 to 100 nM
Cc1nc(-c2ncccn2)sc1C(=O)N1C[C@@H]2C(Oc3cc(C(C)(N)CO)cc(-c4ccc(F)cc4)n3)[C@@H]2C1 (single isomer, unassigned; enantiomer 2) [Example 113B] | < 10 | > 100 | – | – | –
CCC(C)(N)c1cc(OC2[C@H]3CN(C(=O)c4cn(-c5ncccn5)nc4C)C[C@@H]23)nc(-c2ccc(F)cc2)c1 (single isomer, unassigned; enantiomer 2) [Example 116B] | < 10 | > 100 | – | – | –
Cc1nc(-c2ncccn2)sc1C(=O)N1C[C@@H]2[C@H](C1)[C@H]2Nc1cc(C(C)(C)N)cc(-c2ccc(F)cc2)n1 [Example 7, ((1R,5S,6s)-6-((4-(2-aminopropan-2-yl)-6-(4-fluorophenyl)pyridin-2-yl)amino)-3-azabicyclo[3.1.0]hexan-3-yl)(4-methyl-2-(pyrimidin-2-yl)thiazol-5-yl)methanone] | – | – | < 10 | > 100 | –
Cc1nc(-c2ncccn2)sc1C(=O)N1C[C@@H]2[C@H](C1)[C@H]2Oc1cc(C(C)(C)N)cc(-c2ccc(F)cc2)n1 [Example 8, ((1R,5S,6s)-6-((4-(2-aminopropan-2-yl)-6-(4-fluorophenyl)pyridin-2-yl)oxy)-3-azabicyclo[3.1.0]hexan-3-yl)(4-methyl-2-(pyrimidin-2-yl)thiazol-5-yl)methanone] | – | – | < 10 | 10 to 100 | –
CC(C)(N)c1cc(O[C@H]2[C@@H]3CN(C(=O)c4cnc(-c5ncccn5)s4)C[C@@H]32)nc(-c2ccc(F)cc2)c1 [Example 9, ((1R,5S,6s)-6-((4-(2-aminopropan-2-yl)-6-(4-fluorophenyl)pyridin-2-yl)oxy)-3-azabicyclo[3.1.0]hexan-3-yl)(2-(pyrimidin-2-yl)thiazol-5-yl)methanone] | – | – | < 10 | > 100 | –
CCc1nc(-c2ncccn2)sc1C(=O)N1C[C@@H]2[C@H](C1)[C@H]2Oc1cc(C(C)(C)N)cc(-c2ccc(F)cc2)n1 [Example 10, ((1R,5S,6s)-6-((4-(2-aminopropan-2-yl)-6-(4-fluorophenyl)pyridin-2-yl)oxy)-3-azabicyclo[3.1.0]hexan-3-yl)(4-ethyl-2-(pyrimidin-2-yl)thiazol-5-yl)methanone] | < 10 | 10 to 100 | – | – | –
CC(C)(N)c1cc(O[C@H]2[C@@H]3CN(C(=O)c4sc(-c5ncccn5)nc4C(F)(F)F)C[C@@H]32)nc(-c2ccc(F)cc2)c1 [Example 11, ((1R,5S,6s)-6-((4-(2-aminopropan-2-yl)-6-(4-fluorophenyl)pyridin-2-yl)oxy)-3-azabicyclo[3.1.0]hexan-3-yl)(2-(pyrimidin-2-yl)-4-(trifluoromethyl)thiazol-5-yl)methanone] | < 10 | > 100 | – | – | –
Cc1nc(-c2ccccn2)sc1C(=O)N1C[C@@H]2[C@H](C1)[C@H]2Oc1cc(C(C)(C)N)cc(-c2ccc(F)cc2)n1 [Example 12, ((1R,5S,6s)-6-((4-(2-aminopropan-2-yl)-6-(4-fluorophenyl)pyridin-2-yl)oxy)-3-azabicyclo[3.1.0]hexan-3-yl)(4-methyl-2-(pyridin-2-yl)thiazol-5-yl)methanone] | < 10 | > 100 | – | – | –
Cc1nc(-c2ncccn2)sc1C(=O)N1C[C@@H]2[C@H](C1)[C@H]2Oc1cc(C(C)(C)N)cc(-c2cc(F)c(F)c(F)c2)n1 [Example 13, ((1R,5S,6s)-6-((4-(2-aminopropan-2-yl)-6-(3,4,5-trifluorophenyl)pyridin-2-yl)oxy)-3-azabicyclo[3.1.0]hexan-3-yl)(4-methyl-2-(pyrimidin-2-yl)thiazol-5-yl)methanone] | – | – | < 10 | 10 to 100 | –
Cc1nc(-c2ncccn2)sc1C(=O)N1C[C@@H]2[C@H](C1)[C@H]2Oc1cc(C(C)(C)N)cc(-c2ccc(F)c(F)c2F)n1 [Example 14, ((1R,5S,6s)-6-((4-(2-aminopropan-2-yl)-6-(2,3,4-trifluorophenyl)pyridin-2-yl)oxy)-3-azabicyclo[3.1.0]hexan-3-yl)(4-methyl-2-(pyrimidin-2-yl)thiazol-5-yl)methanone] | < 10 | 10 to 100 | – | – | –
